Laboratory results taken from US20230322789A1, “PYRAZOLOPYRIDAZINONE COMPOUND, AND PHARMACEUTICAL COMPOSITION AND USE THEREOF” (BroadenBio Co., Ltd., priority 2020, published 2023).

What was measured:
HPK1 = HPK1 (Homo sapiens (Human), UniProt Q92918); experiment: HPK1 kinase activity inhibition test (ADP-Glo, luminescence); assay type: biochemical; details: HPK1 5 nM, ATP 2 μM, read-out: IC50, inhibitory effects of compounds on HPK1 kinase activity
Summary of the method: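 HPK1 autophosphorylation was run without added substrate. Kinase and compound were preincubated 10 min at 25° C., then ATP was added for 60 min at 25° C. ADP formed was detected by ADP-Glo luminescence, and IC50 was taken from a four-parameter nonlinear fit.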

Human Jurkat-E6-1 cells = experiment: Measurement of IL-2 secretion of Jurkat cells by ELISA; assay type: cell-based; details: Homo sapiens, Jurkat E6.1, anti-CD3/anti-CD28 stimulation 24 hours, read-out: Percentage of the amount of IL-2 secreted from compound treated/DMSO-treated cells; for activity at 3 µM: test compound 3.0 μM
Experimental: 2. Measurement of IL-2 Secretion of Jurkat Cells by ELISA
Human Jurkat-E6-1 cells were incubated with various concentrations of test compounds for 30 minutes in a humidified incubator at 37° C. and […]. Cells were transferred to cell culture plates pre-coated with anti-human CD3 antibody, then soluble anti-human CD28 antibody was added, and cells were stimulated for 24 hours at 37° C. and 5% CO2 in a humidified incubator. The cell culture medium was collected by centrifugation, and was then transferred to a 96-well transparent microtiter plate (Thermo) pre-coated with anti-human IL-2 antibody, incubated at room temperature for 2 hours, and gently shaken, washed with washing buffer for 4 times, and then followed the ELISA MAX Deluxe Set Human IL-2 (BioLegend) kit procedure, used a microplate reader (Molecular Device, i3X) to read the GD value. The best standard curve was selected by the microplate reader application software, and the corresponding concentration was calculated according to the GD value of the standard. Results are expressed as a percentage of the amount of IL-2 secreted from compound-treated/DMSO-treated cells.

Chain of HPK1 (Q92918 whole entry): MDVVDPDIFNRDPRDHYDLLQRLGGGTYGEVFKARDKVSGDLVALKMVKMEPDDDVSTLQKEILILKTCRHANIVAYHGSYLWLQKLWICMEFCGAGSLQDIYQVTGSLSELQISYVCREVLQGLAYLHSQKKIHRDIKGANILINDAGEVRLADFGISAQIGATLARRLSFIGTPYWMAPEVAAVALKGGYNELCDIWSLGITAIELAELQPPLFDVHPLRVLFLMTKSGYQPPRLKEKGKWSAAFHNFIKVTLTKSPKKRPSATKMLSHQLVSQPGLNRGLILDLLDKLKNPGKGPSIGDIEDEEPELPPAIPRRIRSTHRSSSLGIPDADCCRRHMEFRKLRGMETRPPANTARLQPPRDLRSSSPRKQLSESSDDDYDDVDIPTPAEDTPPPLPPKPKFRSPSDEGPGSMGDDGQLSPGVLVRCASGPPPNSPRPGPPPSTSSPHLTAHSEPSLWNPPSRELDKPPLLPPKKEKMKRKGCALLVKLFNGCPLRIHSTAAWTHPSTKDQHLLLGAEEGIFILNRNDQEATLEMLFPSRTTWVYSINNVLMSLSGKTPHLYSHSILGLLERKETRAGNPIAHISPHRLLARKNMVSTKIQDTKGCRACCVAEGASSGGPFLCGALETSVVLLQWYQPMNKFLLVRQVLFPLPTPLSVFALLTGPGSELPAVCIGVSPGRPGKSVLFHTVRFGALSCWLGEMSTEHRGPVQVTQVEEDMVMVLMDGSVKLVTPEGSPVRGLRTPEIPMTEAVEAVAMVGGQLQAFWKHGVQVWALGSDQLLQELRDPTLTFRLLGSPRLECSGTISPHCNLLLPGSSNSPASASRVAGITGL

SMILES	IC50 (HPK1) [µM]	activity at 3 µM (Human Jurkat-E6-1 cells) [%]	activity at 0.33 µM (Human Jurkat-E6-1 cells; test compound 0.33 μM) [%]	activity at 1 µM (Human Jurkat-E6-1 cells; test compound 1.0 μM) [%]
COc1ccncc1-n1nc2c(-c3ccc(C4=CCN(C)CC4)cc3)n[nH]c2cc1=O [Compound 151, 5-(4-methoxypyrid-3-yl)-3-(4-(1-methyl-1,2,3,6-tetrahydropyridin-4-yl)phenyl)-1H-pyrazolo[4,3-c]pyridazin-6(5H)-one]	0.05 to 0.5	230	–	–
Cc1cccc(F)c1-n1nc2c(-c3ccc(N4CCN(CCO)CC4)nc3)n[nH]c2cc1=O [Compound 118, 5-(2-fluoro-6-methylphenyl)-3-(6-(4-(2-hydroxyethyl)piperazin-1-yl)pyrid-3-yl)-1H-pyrazolo[4,3-c]pyridazin-6(5H)-one]	≤ 0.05	550	–	–
COc1cccc(F)c1-n1nc2c(-c3ccc(N4CCC(N5CCOCC5)CC4)cc3)n[nH]c2cc1=O [Compound 144, 5-(2-fluoro-6-methoxyphenyl)-3-(4-(4-morpholinopiperidin-1-yl)phenyl)-1H-pyrazolo[4,3-c]pyridazin-6(5H)-one]	≤ 0.05	716	–	–
COc1cccc(F)c1-n1nc2c(-c3ccc(N4CCN5CCOC[C@H]5C4)cc3)n[nH]c2cc1=O [Compound 136, (R)-5-(2-fluoro-6-methoxyphenyl)-3-(4-(hexahydropyrazino[2,1-c][1,4]oxazin-8(1H)-yl)phenyl)-1H-pyrazolo[4,3-c]pyridazin-6(5H)-one]	≤ 0.05	702	–	–
Cc1cccc(F)c1-n1nc2c(-c3ccc(N4CCn5ccnc5C4)cc3)n[nH]c2cc1=O [Compound 137, 3-(4-(5,6-dihydroimidazolo[1,2-a]pyrazin-7(8H)-yl)phenyl)-5-(2-fluoro-6-methylphenyl)-1H-pyrazolo[4,3-c]pyridazin-6(5H)-one]	≤ 0.05	291	–	–
Cc1cccc(F)c1-n1nc2c(-c3ccc(OCC4CNCCN4)cc3)n[nH]c2cc1=O (stereo not shown) [Compound 93, 5-(2-fluoro-6-methylphenyl)-3-(4-(piperazin-2-ylmethoxy)phenyl)-1H-pyrazolo[4,3-c]pyridazin-6(5H)-one]	≤ 0.05	210	–	–
COc1cccc(F)c1-n1nc2c(-c3ccc(N4CCN(CCO)CC4)cc3)n[nH]c2cc1=O [Compound 113, 5-(2-fluoro-6-methoxyphenyl)-3-(4-(4-(2-hydroxyethyl)piperazin-1-yl)phenyl)-1H-pyrazolo[4,3-c]pyridazin-6(5H)-one]	≤ 0.05	368	–	–
COc1cc(C#N)cc(F)c1-n1nc2c(-c3ccc(N4CCN(CCO)CC4)cc3)n[nH]c2cc1=O [Compound 114, 3-fluoro-4-(3-(4-(4-(2-hydroxyethyl)piperazin-1-yl)phenyl)-6-oxo-1H-pyrazolo[4,3-c]pyridazin-5(6H)-yl)-5-methoxybenzonitrile]	≤ 0.05	309	–	–
Cc1cccc(F)c1-n1nc2c(-c3ccc(N4CCN(C)C(CO)C4)cc3)n[nH]c2cc1=O (stereo not shown) [Compound 120, 5-(2-fluoro-6-methylphenyl)-3-(4-(3-(hydroxymethyl)-4-methylpiperazin-1-yl)phenyl)-1H-pyrazolo[4,3-c]pyridazin-6(5H)-one]	≤ 0.05	482	–	–
Cc1cccc(F)c1-n1nc2c(-c3ccc4c(c3)CN(CCO)CC4)n[nH]c2cc1=O [Compound 162, 5-(2-fluoro-6-methylphenyl)-3-(2-(2-hydroxyethyl)-1,2,3,4-tetrahydroisoquinolin-7-yl)-1H-pyrazolo[4,3-c]pyridazin-6(5H)-one]	≤ 0.05	586	–	–
Cc1cc(-c2n[nH]c3cc(=O)n(-c4c(C)cccc4F)nc23)cc(C)c1N1CCN(C)CC1 [Compound 13]	0.05 to 0.5	315	–	–
COc1cccc(F)c1-n1nc2c(-c3ccc(N4CCN(C)C(C(C)(C)O)C4)cc3)n[nH]c2cc1=O (stereo not shown) [Compound 126]	≤ 0.05	428	–	–
CN1CCN(c2ccc(-c3n[nH]c4cc(=O)n(-c5cccc6c5OCO6)nc34)cc2)CC1 [Compound 76]	≤ 0.05	561	–	–
CCc1cccc(F)c1-n1nc2c(-c3cccc(N4CCN(C)CC4)c3)n[nH]c2cc1=O [Compound 200, 5-(2-ethyl-6-fluorophenyl)-3-(3-(4-methylpiperazin-1-yl)phenyl)-1H-pyrazolo[4,3-c]pyridazin-6(5H)-one]	≤ 0.05	286	–	–
Cc1cc(C#N)cc(F)c1-n1nc2c(-c3ccc4c(c3)CNCC4)n[nH]c2cc1=O [Compound 171, 3-fluoro-5-methyl-4-(3-(1,2,3,4-tetrahydroisoquinolin-7-yl)-6-oxo-1H-pyrazolo[4,3-c]pyridazin-5(6H)-yl)benzonitrile]	0.05 to 0.5	220	–	–
COc1cccc(F)c1-n1nc2c(-c3ccc(N4CCC(N5CCN(C)CC5)CC4)cc3)n[nH]c2cc1=O [Compound 145, 5-(2-fluoro-6-methoxyphenyl)-3-(4-(4-(4-methylpiperazin-1-yl)piperidin-1-yl)phenyl)-1H-pyrazolo[4,3-c]pyridazin-6(5H)-one]	≤ 0.05	776	–	–
COc1cc(-c2n[nH]c3cc(=O)n(-c4c(C)cccc4F)nc23)ccc1N1CCN(C)CC1 [Compound 14, 5-(2-fluoro-6-methylphenyl)-3-(3-methoxy-4-(4-methylpiperazin-1-yl)phenyl)-1H-pyrazolo[4,3-c]pyridazin-6(5H)-one]	0.05 to 0.5	255	–	–
COc1cccc(F)c1-n1nc2c(-c3cnc(N4CCOCC4)nc3)n[nH]c2cc1=O [Compound 111, 5-(2-fluoro-6-methoxyphenyl)-3-(2-morpholinyl-pyrimidin-5-yl)-1H-pyrazolo[4,3-c]pyridazin-6(5H)-one]	≤ 0.05	522	–	–
Cc1cc(C#N)cc(F)c1-n1nc2c(-c3ccc(N4CCN(C5CCOC5)CC4)cc3)n[nH]c2cc1=O (stereo not shown) [Compound 85, 3-fluoro-5-methyl-4-(6-oxo-3-(4-(4-(tetrahydrofuran-3-yl)piperazin-1-yl)phenyl)-1H-pyrazolo[4,3-c]pyridazin-5(6H)-yl)benzonitrile]	≤ 0.05	239	–	–

Continued, in another order:

IC50 (HPK1) [µM]	SMILES	activity at 3 µM (Human Jurkat-E6-1 cells) [%]	activity at 0.33 µM (Human Jurkat-E6-1 cells; test compound 0.33 μM) [%]	activity at 1 µM (Human Jurkat-E6-1 cells; test compound 1.0 μM) [%]
≤ 0.05	Cc1cccc(F)c1-n1nc2c(-c3ccc(N4CCN(C)C(CO)C4)nc3)n[nH]c2cc1=O (stereo not shown) [Compound 128, 5-(2-fluoro-6-methylphenyl)-3-(6-(3-(hydroxymethyl)-4-methylpiperazin-1-yl)pyrid-3-yl)-1H-pyrazolo[4,3-c]pyridazin-6(5H)-one]	472	–	–
≤ 0.05	COc1cccc(F)c1-n1nc2c(-c3ccc(N4CCN(C)C(C(C)(C)OC)C4)cc3)n[nH]c2cc1=O (stereo not shown) [Compound 127, 5-(2-fluoro-6-methoxyphenyl)-3-(4-(3-(2-methoxyprop-2-yl)-4-methylpiperazin-1-yl)phenyl)-1H-pyrazolo[4,3-c]pyridazin-6(5H)-one]	758	–	–
≤ 0.05	CCc1cccc(F)c1-n1nc2c(-c3ccc(N4CCN(C)CC4)cc3)n[nH]c2cc1=O [Compound 8, 5-(2-ethyl-6-fluorophenyl)-3-(4-(4-methylpiperazin-1-yl)phenyl)-1H-pyrazolo[4,3-c]pyridazin-6(5H)-one]	–	306	–
≤ 0.05	Cc1cccc(F)c1-n1nc2c(-c3ccc(N4CCC(O)CC4)cc3)n[nH]c2cc1=O [Compound 138, 5-(2-fluoro-6-methylphenyl)-3-(4-(4-hydroxylpiperidin-1-yl)phenyl)-1H-pyrazolo[4,3-c]pyridazin-6(5H)-one]	873	–	–
≤ 0.05	COc1cccc(F)c1-n1nc2c(-c3ccc(N4CCN(C)C(=O)C4)cc3)n[nH]c2cc1=O [Compound 33, 5-(2-fluoro-6-methoxyphenyl)-3-(4-(4-methyl-3-oxo-piperazin-1-yl)phenyl)-1H-pyrazolo [4,3-c]pyridazin-6(5H)-one]	–	–	631
≤ 0.05	Cc1cc(C#N)cc(F)c1-n1nc2c(-c3ccc(N4CCN(C(=O)[C@H](C)N)CC4)cc3)n[nH]c2cc1=O [Compound 82]	195	–	–
≤ 0.05	Cc1cc(C#N)cc(F)c1-n1nc2c(-c3ccc(N4CCN(C(=O)C(C)O)CC4)cc3)n[nH]c2cc1=O (stereo not shown) [Compound 83]	252	–	–
≤ 0.05	Cc1cccc(F)c1-n1nc2c(-c3ccc(N4C[C@@H]5C[C@H]4CN5C)cc3)n[nH]c2cc1=O [Compound 87]	584	–	–
≤ 0.05	[2H]C([2H])([2H])N1CCN(c2ccc(-c3n[nH]c4cc(=O)n(-c5c(C)cccc5F)nc34)cc2)CC1 [Compound 81, 5-(2-fluoro-6-methylphenyl)-3-(4-(4-(methyl-d3)piperazin-1-yl)phenyl)-1H-pyrazolo[4,3-c]pyridazin-6(5H)-one]	679	–	–
≤ 0.05	[2H]C([2H])([2H])N1CCc2ccc(-c3n[nH]c4cc(=O)n(-c5c(C)cccc5F)nc34)cc2C1 [Compound 157, 5-(2-fluoro-6-methylphenyl)-3-(2-(methyl-d3)-1,2,3,4-tetrahydroisoquinolin-7-yl)-1H-pyrazolo[4,3-c]pyridazin-6(5H)-one]	935	–	–
